This note sets out measurements from US20240182465A1 (GENFLEET THERAPEUTICS (SHANGHAI) INC., priority 2021, published 2024).

The IC50 is the midpoint of a concentration-inhibition curve.

Assay [1] concerns the target T1, HPK1 (Homo sapiens, UniProt Q92918).
T1 sequence (Q92918 1-346 limits assumed): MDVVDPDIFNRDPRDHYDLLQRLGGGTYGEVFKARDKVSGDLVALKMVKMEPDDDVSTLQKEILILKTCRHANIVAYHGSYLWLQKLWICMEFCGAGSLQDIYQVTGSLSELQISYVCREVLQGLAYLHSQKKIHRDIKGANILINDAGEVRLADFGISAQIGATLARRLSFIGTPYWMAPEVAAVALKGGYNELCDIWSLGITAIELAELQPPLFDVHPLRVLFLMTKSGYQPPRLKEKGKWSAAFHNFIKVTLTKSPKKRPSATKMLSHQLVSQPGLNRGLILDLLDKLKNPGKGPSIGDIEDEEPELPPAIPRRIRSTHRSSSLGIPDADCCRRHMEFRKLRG
Briefly: HPK1 kinase activity assay (ADP-Glo). The following applies: HPK1 Kinase activity IC50 (nM), 1 nM HPK1, 10 μM ATP, 0.1 μg/μL MBP. On the technique in general: ADP-Glo turns the ADP formed in a reaction into a luminescent signal.

Assay [2] deals with HPK1 (Homo sapiens, UniProt Q92918). Briefly: SLP76 phosphorylation assay (intracellular HPK1 inhibitory activity, p-SLP76 Ser376 sandwich ELISA). The following applies: p-SLP76 IC50(nM), Jurkat, Clone E6-1 cells; 1 h compound pre-incubation, anti-CD3 beads stimulation 20 min; SLP76 phosphorylation at S376. Background: ELISA stands for enzyme-linked immunosorbent assay.
Target sequence in this assay (Q92918 whole entry): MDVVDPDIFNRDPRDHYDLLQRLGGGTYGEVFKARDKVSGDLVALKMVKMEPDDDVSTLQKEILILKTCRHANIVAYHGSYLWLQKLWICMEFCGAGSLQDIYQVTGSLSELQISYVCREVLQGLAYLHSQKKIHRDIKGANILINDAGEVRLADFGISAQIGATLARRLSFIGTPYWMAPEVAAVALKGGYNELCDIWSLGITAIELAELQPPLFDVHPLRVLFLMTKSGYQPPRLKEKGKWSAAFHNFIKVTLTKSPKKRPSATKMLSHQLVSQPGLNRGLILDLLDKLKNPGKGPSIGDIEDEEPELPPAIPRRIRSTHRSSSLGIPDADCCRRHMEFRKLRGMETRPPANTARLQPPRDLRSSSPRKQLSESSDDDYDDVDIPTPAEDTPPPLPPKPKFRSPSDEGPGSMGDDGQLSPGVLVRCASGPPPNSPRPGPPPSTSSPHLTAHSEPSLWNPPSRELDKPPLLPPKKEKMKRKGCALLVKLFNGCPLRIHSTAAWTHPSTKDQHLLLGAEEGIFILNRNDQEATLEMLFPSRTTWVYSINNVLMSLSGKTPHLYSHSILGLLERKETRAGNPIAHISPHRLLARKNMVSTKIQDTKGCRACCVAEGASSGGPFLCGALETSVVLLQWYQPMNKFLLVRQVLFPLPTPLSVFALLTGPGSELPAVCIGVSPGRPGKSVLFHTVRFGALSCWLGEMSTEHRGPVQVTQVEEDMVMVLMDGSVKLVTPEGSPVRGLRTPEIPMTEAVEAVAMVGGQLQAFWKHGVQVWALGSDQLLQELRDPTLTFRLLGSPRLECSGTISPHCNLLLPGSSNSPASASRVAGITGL
Description: Intracellular HPK1 inhibitory activity was tested by the detection of SLP76 phosphorylation at S376.
Preparation of 1000× drug stock plate: a 1000× compound stock plate was prepared. […] The compound stock plate was sealed with a sealing film and stored in a −20° C. refrigerator for later use.
Preparation of Beads wash buffer: 0.1 mL FBS and 0.4 mL 0.5 M EDTA (with a final concentration of 2 mM) were added to 100 mL PBS and stored in a 4° C. refrigerator for later use.
100× Protease Inhibitor Cocktail in 1/20 total volume was added and stored on wet ice for later use. The buffer was ready to use.
Cell inoculation and dosing: the 1000× drug stock plate was taken and melted at room temperature in the dark. […] Jurkat cells in the logarithmic growth phase were selected and collected. […] The cells were inoculated into a 96-well plate (the volume was 90 μL per well), and a blank control well (without cells inoculation, and in which 110 μL of medium was added) was set. 10 μL of a drug-containing culture medium (10×) was transferred from the 10× drug intermediate plate into the 96-well cell plate (with a final concentration of 0.1% DMSO), and set a DMSO control group (in which 0.1% DMSO was added to the treated cells), a stimulated control group (in which 10 μL of culture medium was added to treat cells) and an unstimulated group (in which 10 μL of culture medium was added to treat cells). The wells were duplicated, gently patted, mixed, and then placed into a 5% CO2 incubator at 37° C. for 1 h.
Anti-CD3 beads stimulation: Dynabeads anti-human CD3 was taken, shaken, and mixed for 60 s. The required volume of beads was pipetted, and an equal volume or at least 1 mL of washing solution was added to wash once. Fresh complete medium was then added to resuspend and adjust the density of the beads to 4×10^7/mL, and the beads were placed on ice for later use. At the end of drug pre-incubation, the cell culture plate was taken out. 10 μL Dynabeads anti-human CD3 was added to each well to treat the cells, and 10 μL the culture medium was added to the unstimulated group. The cell culture plate was shaken to mix well at 2500 rpm for 10 s, and then placed into a 5% CO2 incubator at 37° C. and continued to culture for 20 min.
Detection of p-SLP76 protein level. PathScan Phospho-SLP-76 (Ser376) Sandwich ELISA Kit was applied to detect p-SLP76 protein level. At the end of the Anti-CD3 beads stimulation, the cell culture plate was removed from the incubator. […] After lysis, the cell culture plate was centrifuged at 4° C., 400×g for 5 min. 25 μL of sample and 75 μL of sample diluent were added to each well, and the plate was placed in a 5% CO2 incubator at 37° C. for 2 h. The subsequent detection steps were carried out following the kit instructions, and the absorbance (OD value) of each well was read at 450 nm by a microplate reader.

For the compound `Cc1c[nH]c2ncc(-c3cc4c(c(CN(C)C)c3)C(=O)N(C)CC4)cc12` [Compound Z186, 8-((dimethylamino)methyl)-2-methyl-6-(3-methyl-1H-pyrrolo[2,3-b]pyridin-5-yl)-3,4-dihydroisoquinolin-1(2H)-one], the IC50 against HPK1 [1] is 34.2 nM; at HPK1 [2], 3760 nM.

Take `N#Cc1c[nH]c2ncc(-c3cc4c(c([C@@H]5CCCN5)c3)COCC4)cc12` [Compound Z190, (S)-5-(8-(pyrrolidin-2-yl)isochroman-6-yl)-1H-pyrrolo[2,3-b]pyridine-3-carbonitrile]: the IC50 against HPK1 [1] was found to be 1.89 nM; at HPK1 [2], 494 nM.

`c1cncc(-c2c[nH]c3ncc(-c4cc5c(c([C@@H]6CCCN6)c4)COCC5)cc23)c1` [Compound Z199, (S)-3-(pyridin-3-yl)-5-(8-(pyrrolidin-2-yl)isochroman-6-yl)-1H-pyrrolo[2,3-b]pyridine]: the IC50 is 0.32 nM on HPK1 [1] and 117 nM at HPK1 [2].

Regarding `Cc1c[nH]c2ncc(-c3cc4c(c([C@@H]5CCCN5)c3)CN(C(=O)c3cccnc3)CC4)cc12` [Compound Z210, (S)-1-(6-(3-methyl-1H-pyrrolo[2,3-b]pyridin-5-yl)-8-(pyrrolidin-2-yl)-3,4-dihydroisoquinolin-2(1H)-yl)(pyridin-3-yl)methanone], the IC50 came out at 0.62 nM at HPK1 [1] and 227 nM on HPK1 [2].

Take `Cc1c[nH]c2ncc(-c3cc4c(c([C@@H]5CCCN5)c3)CN(C(=O)c3ccccn3)CC4)cc12` [Compound Z211, (S)-(6-(3-methyl-1H-pyrrolo[2,3-b]pyridin-5-yl)-8-(pyrrolidin-2-yl)-3,4-dihydroisoquinolin-2(1H)-yl) (pyridin-2-yl)methanone]: the concentration for half-maximal inhibition (IC50) at HPK1 [1] stood at 1.7 nM; on HPK1 [2], 463 nM.

On to `Cc1ccc(-c2c[nH]c3ncc(-c4cc5c(c([C@@H]6CCCN6)c4)COCC5)cc23)cn1` [Compound Z212, (S)-3-(6-methylpyridin-3-yl)-5-(8-(pyrrolidin-2-yl)isochroman-6-yl)-1H-pyrrolo[2,3-b]pyridine], for which the IC50 against HPK1 [1] was 3.76 nM; at HPK1 [2], 909 nM.

As to `Cc1cc(C(=O)N2CCc3cc(-c4cnc5[nH]cc(C)c5c4)cc([C@@H]4CCCN4)c3C2)ccn1` [Compound Z213, (S)-(6-(3-methyl-1H-pyrrolo[2,3-b]pyridin-5-yl)-8-(pyrrolidin-2-yl)-3,4-dihydroisoquinolin-2(1H)-yl) (2-methylpyridin-4-yl)methanone], the IC50 against HPK1 [1] was 0.64 nM; at HPK1 [2], 318 nM.

For `Cc1cc(C(=O)N2CCc3cc(-c4cnc5[nH]cc(C)c5c4)cc([C@@H]4CCCN4)c3C2)cc(C)n1` [Compound Z214, (S)-(6-(3-methyl-1H-pyrrolo[2,3-b]pyridin-5-yl)-8-(pyrrolidin-2-yl)-3,4-dihydroisoquinolin-2(1H)-yl) (2,6-dimethylpyridin-4-yl)methanone], the IC50 at HPK1 [1] was determined as 1.04 nM; against HPK1 [2], 181 nM.

For `COc1cc(C(=O)N2CCc3cc(-c4cnc5[nH]cc(C)c5c4)cc([C@@H]4CCCN4)c3C2)ccn1` [Compound Z215, (S)-(6-(3-methyl-1H-pyrrolo[2,3-b]pyridin-5-yl)-8-(pyrrolidin-2-yl)-3,4-dihydroisoquinolin-2(1H)-yl) (2-methoxypyridin-4-yl)methanone], the IC50 against HPK1 [1] is 0.51 nM; on HPK1 [2], 444 nM.

Regarding `Cc1c[nH]c2ncc(-c3cc4c(c([C@@H]5CCCN5)c3)CN(C(=O)C(C)(C)O)CC4)cc12` [Compound Z216, (S)-2-hydroxy-2-methyl-1-(6-(3-methyl-11H-pyrrolo[2,3-b]pyridin-5-yl)-8-(pyrrolidin-2-yl)-3,4-dihydroisoquinolin-2(1H)-yl)propan-1-one], the IC50 amounted to 0.41 nM on HPK1 [1] and 108 nM on HPK1 [2].

In the case of `CCNC(=O)N1CCc2cc(-c3cnc4[nH]cc(C)c4c3)cc([C@@H]3CCCN3)c2C1` [Compound Z217, (S)—N-ethyl-6-(3-methyl-1H-pyrrolo[2,3-b]pyridin-5-yl)-8-(pyrrolidin-2-yl)-3,4-dihydroisoquinoline-2(1H)-carboxamide], the results for the IC50 on HPK1 [1] and on HPK1 [2] were 0.44 nM and 133 nM, respectively.

Regarding `Cc1c[nH]c2ncc(-c3cc4c(c([C@@H]5CCCN5)c3)CN(C(=O)CC3CCOCC3)CC4)cc12` [Compound Z218, (S)-1-(6-(3-methyl-1H-pyrrolo[2,3-b]pyridin-5-yl)-8-(pyrrolidin-2-yl)-3,4-dihydroisoquinolin-2(1H)-yl)-2-(tetrahydro-2H-pyran-4-yl)ethanone], the IC50 is 0.81 nM on HPK1 [1] and 367 nM against HPK1 [2].

`Cc1c[nH]c2ncc(-c3cc4c(c([C@@H]5CCCN5)c3)CN(C(=O)[C@@H]3CCOC3)CC4)cc12` [Compound Z219-1, (S)-(6-(3-methyl-1H-pyrrolo[2,3-b]pyridin-5-yl)-8-(pyrrolidin-2-yl)-3,4-dihydroisoquinolin-2(1H)-yl) ((R)-tetrahydrofuran-3-yl)methanone]: the figures for the IC50 at HPK1 [1] and against HPK1 [2] were 0.42 nM and 174 nM, respectively.

As for `Cc1c[nH]c2ncc(-c3cc4c(c([C@@H]5CCCN5)c3)CN(C(=O)[C@H]3CCOC3)CC4)cc12` [Compound Z219-2, (S)-(6-(3-methyl-1H-pyrrolo[2,3-b]pyridin-5-yl)-8-(pyrrolidin-2-yl)-3,4-dihydroisoquinolin-2(1H)-yl) ((S)-tetrahydrofuran-3-yl)methanone], the results for the IC50 against HPK1 [1] and at HPK1 [2] were 0.35 nM and 122 nM, respectively.

Take `Cc1c[nH]c2ncc(-c3cc4c(c([C@@H]5CCCN5)c3)CN(C(=O)C3CCOC3)CC4)cc12` (stereo partly shown) [Compound Z219]: the figures for the IC50 against HPK1 [1] and on HPK1 [2] were 0.66 nM and 257 nM, respectively.

On to `Cc1c[nH]c2ncc(-c3cc4c(c([C@@H]5CCCN5)c3)CN(C(=O)c3ccncn3)CC4)cc12` [Compound Z221, (S)-(6-(3-methyl-1H-pyrrolo[2,3-b]pyridin-5-yl)-8-(pyrrolidin-2-yl)-3,4-dihydroisoquinolin-2(1H)-yl) (pyrimidin-4-yl)methanone], for which the IC50 on HPK1 [1] was determined as 1.27 nM; against HPK1 [2] it was 215 nM.

As for `Cc1c[nH]c2ncc(-c3cc4c(c([C@@H]5CCCN5)c3)CN(C(=O)c3ccn(C)n3)CC4)cc12` [Compound Z223, (S)-(1-methyl-1H-pyrazol-3-yl)(6-(3-methyl-1H-pyrrolo[2,3-b]pyridin-5-yl)-8-(pyrrolidin-2-yl)-3,4-dihydroisoquinolin-2(1H)-yl)methanone], the IC50 on HPK1 [1] worked out at 1.6 nM; at HPK1 [2], 301 nM.

Turning to `Cc1c[nH]c2ncc(-c3cc4c(c([C@@H]5CCCN5)c3)CN(C(=O)c3cnn(C)c3)CC4)cc12` [Compound Z224, (S)-(1-methyl-1H-pyrazol-4-yl)(6-(3-methyl-1H-pyrrolo[2,3-b]pyridin-5-yl)-8-(pyrrolidin-2-yl)-3,4-dihydroisoquinolin-2(1H)-yl)methanone], the 50% inhibitory concentration (IC50) at HPK1 [1] amounted to 1.11 nM; against HPK1 [2] it was 333 nM.

Consider `Cc1c[nH]c2ncc(-c3cc4c(c([C@@H]5CCCN5)c3)COC3(CC3)C4)cc12` [Compound Z229, (S)-3-methyl-5-(8′-(pyrrolidin-2-yl)spiro[cyclopropane-1,3′-isochroman]-6′-yl)-1H-pyrrolo[2,3-b]pyridine], for which the IC50 against HPK1 [1] came to 0.46 nM; against HPK1 [2], 276 nM.

On to `C=C1COCc2c(cc(-c3cnc4[nH]cc(C)c4c3)cc2[C@@H]2CCCN2)C1` [Compound Z230, (S)-3-methyl-5-(4-methylene-9-(pyrrolidin-2-yl)-1,3,4,5-tetrahydrobenzo[c]oxepin-7-yl)-1H-pyrrolo[2,3-b]pyridine], for which the concentration for half-maximal inhibition (IC50) at HPK1 [1] came to 1.04 nM; on HPK1 [2], 438 nM.
